For assay [1], the target named is T1, arylacetamide deacetylase-like 1 (AADACL1) (Homo sapiens, UniProt Q6PIU2).
T1 sequence (Q6PIU2 1-408): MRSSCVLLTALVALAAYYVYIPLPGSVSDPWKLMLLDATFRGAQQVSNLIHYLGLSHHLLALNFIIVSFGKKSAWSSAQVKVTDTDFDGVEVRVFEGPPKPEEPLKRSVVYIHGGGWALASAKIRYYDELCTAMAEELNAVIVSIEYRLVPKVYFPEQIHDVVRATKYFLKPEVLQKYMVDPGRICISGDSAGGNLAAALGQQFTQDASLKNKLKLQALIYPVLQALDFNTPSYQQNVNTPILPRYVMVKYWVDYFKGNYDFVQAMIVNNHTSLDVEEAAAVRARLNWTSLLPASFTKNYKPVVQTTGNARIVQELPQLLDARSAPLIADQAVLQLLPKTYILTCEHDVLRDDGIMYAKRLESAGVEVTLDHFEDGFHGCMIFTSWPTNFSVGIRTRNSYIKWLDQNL
In words: hydrolysis of exogenous HAG in human platelet lysate, blocked by JW480. Type of assay: cell-based.

Assay [2] deals with T1, arylacetamide deacetylase-like 1 (AADACL1). In words: HAG hydrolysis activity in lysates of JW480-treated human platelets. The assay is classed as cell-based.

As to `CCCCCCCCCCCCCCCCOC[C@H](CO)OC(C)=O` [HAG, 1-O-hexadecyl-2-O-acetyl-sn-glycerol], the “hydrolysis of exogenous HAG in human platelet lysate, blocked by JW480” value in assay [1] is “AADACL1 also hydrolyzes HAG to its corresponding monoalkylglycerol ether (C16 MAGE) in human platelets”.

As for `CC(C)c1ccccc1OC(=O)NCCc1ccc2ccccc2c1` [JW480], the “% inhibition at 2 μM” value in assay [2] turned out to be 90 ± 0.56% inhibition at 2.
